Target: T1, HCV NS5B RdRp genotype 1b (Hepatitis C virus genotype 1b, UniProt Q9WMX2)
T1 construct: The protein was expressed with an 18 amino acid C-terminal truncation to enhance the solubility; made in house; host or cells: E. coli BL21(DE3)
Test: HCV NS5B RdRp enzyme assay
Type: biochemical
Conditions: IC50, HCV RdRp genotype 1b enzyme, C-terminal 18 aa truncated; average of single point IC50 values
Experimental: HCV NS5B RdRp cloning, expression and purification. The cDNA encoding the NS5B protein of HCV, genotype 1b, was cloned into the pET21a expression vector. The protein was expressed with an 18 amino acid C-terminal truncation to enhance the solubility. The E. coli competent cell line BL21(DE3) was used for expression of the protein. Cultures were grown at 37° C. for ˜4 hours until the cultures reached an optical density of 2.0 at 600 nm. The cultures were cooled to 20° C. and induced with 1 mM IPTG. Fresh ampicillin was added to a final concentration of 50 ug/ml and the cells were grown overnight at 20° C.
Cell pellets (3L) were lysed for purification to yield 15-24 mgs of purified NS5B. The lysis buffer consisted of 20 mM Tris-HCl, pH 7.4, 500 mM NaCl, 0.5% triton X-100, 1 mM DTT, 1 mM EDTA, 20% glycerol, 0.5 mg/ml lysozyme, 10 mM MgCl2, 15 ug/ml deoxyribonuclease I, and Complete TM protease inhibitor tablets (Roche). After addition of the lysis buffer, frozen cell pellets were resuspended using a tissue homogenizer. To reduce the viscosity of the sample, aliquots of the lysate were sonicated on ice using a microtip attached to a Branson sonicator. The sonicated lysate was centrifuged at 100,000×g for 1 hr at 4° C. and filtered through a 0.2 μm filter unit (Corning).
The protein was purified using three sequential chromatography steps: Heparin sepharose CL-6B, polyU sepharose 4B, and Hitrap SP sepharose (Pharmacia). The chromatography buffers were identical to the lysis buffer but contained no lysozyme, deoxyribonuclease I, MgCl2 or protease inhibitor and the NaCl concentration of the buffer was adjusted according to the requirements for charging the protein onto the column. Each column was eluted with a NaCl gradient which varied in length from 5-50 column volumes depending on the column type. After the final chromatography step, the resulting purity of the enzyme is >90% based on SDS-PAGE analysis. The enzyme was aliquoted and stored at −80° C.
HCV NS5B RdRp enzyme assay. HCV RdRp genotype 1b assays were run in assay buffer composed of 20 mM Tris-HCl, pH 7.5, 2.5 mM KCl, 5 mM MgCl2, 1 mM DTT, 1.6 U RNAse inhibitor (Promega N2515), in 96 well plates (Falcon 3918). All compounds were serially diluted in DMSO and diluted further in assay buffer such that the final concentration of DMSO in the assay was 2%. Compounds were serially diluted (3-fold each time) for a 7 point inhibition analysis. HCV RdRp genotype 1b enzyme was used at a final concentration of 28 nM. A polyA template was used at 28 nM, and the oligo-dT12-18 primer was used at 840 nM final concentration. Preannealed primer and template were obtained commercially (Amersham 27-787802). ^3H-UTP was used at 0.125 μCi (1 μM total UTP). Reaction was initiated by the addition of enzyme. Reactions were incubated at 30° C. for 45 min, and stopped by adding 30 ul of 20% ice cold TCA. Plates were chilled for 30 minutes and harvested onto Unifilter-96, GF/B plates (Packard, 6005177) using a Packard FilterMate Cell Harvester. The harvest plates were prewashed 3 times, 200 ul/well, with 100 mM NaPPi. Harvested filters were washed 30 times, 200 ul/well, with distilled water followed by ethanol. Filter plates were dried, and 30 ul/well microscint-20 was added. Plates were read on a Packard Top Count NXT.
The IC50 values for compounds were determined using […] different [I], combined with 7 nM enzyme, 800 ng of the template-primer polyC/oligoG12 (1:5 molar ratio), and 0.7 uM of ^3H GTP containing 1 uCi. The observed fractional activity (fa=vi/vo) was used in the equation IC50=[I]/(1/fa-1) to determine a single point IC50 value. Typically, the single point IC50 values derived from [I] that produced fractional activities in the range of 0.1 to 0.8 relative to the uninhibited control were averaged to calculate the IC50 value for each compound.

T1 sequence (Q9WMX2 2420-2992): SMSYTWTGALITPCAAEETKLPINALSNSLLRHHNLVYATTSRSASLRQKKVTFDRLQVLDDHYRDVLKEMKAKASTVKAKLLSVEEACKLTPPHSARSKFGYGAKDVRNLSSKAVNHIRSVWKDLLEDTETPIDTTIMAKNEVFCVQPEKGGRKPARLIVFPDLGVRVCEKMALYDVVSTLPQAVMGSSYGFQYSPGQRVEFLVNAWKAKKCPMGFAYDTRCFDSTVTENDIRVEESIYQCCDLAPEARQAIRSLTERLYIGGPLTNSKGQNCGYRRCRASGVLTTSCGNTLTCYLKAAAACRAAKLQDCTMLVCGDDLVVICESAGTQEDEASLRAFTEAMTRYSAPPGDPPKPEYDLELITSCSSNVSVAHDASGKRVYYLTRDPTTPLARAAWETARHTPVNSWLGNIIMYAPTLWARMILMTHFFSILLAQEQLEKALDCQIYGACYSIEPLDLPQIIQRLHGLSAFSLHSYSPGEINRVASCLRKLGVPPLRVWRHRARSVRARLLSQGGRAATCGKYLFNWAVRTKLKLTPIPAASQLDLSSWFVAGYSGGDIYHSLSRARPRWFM

| Compound | IC50 [nM] |
| --- | --- |
| O=C(O)c1ccc(-c2cc(Cl)cc(Cl)c2)c(COc2ccc(-c3nc4cc(-c5nnn[nH]5)ccc4n3C3CCCCC3)cc2)c1 [Example 27] | 1010 |
| O=C(O)c1ccc(-c2ccc(CO)cc2)c(COc2ccc(-c3nc4cc(-c5nnn[nH]5)ccc4n3C3CCCCC3)cc2)c1 [Example 42] | 50 |
| CC(C)(C)OC(=O)CNC(=O)c1ccc(-c2cccc(O)c2)c(COc2ccc(-c3nc4cc(-c5nnn[nH]5)ccc4n3C3CCCCC3)cc2)c1 [Example 72] | 930 |
| O=C(c1ccc(-c2ccsc2)c(COc2ccc(-c3nc4cc(-c5nnn[nH]5)ccc4n3C3CCCCC3)cc2)c1)N1CCCC1 [Example 134] | 370 |
| CC(C)(C)OC(=O)C(Cc1ccc(O)cc1)NC(=O)c1ccc(-c2ccc(F)c(Cl)c2)c(COc2ccc(-c3nc4cc(-c5nnn[nH]5)ccc4n3C3CCCCC3)cc2)c1 (stereo not drawn) [Example 83] | 560 |
| COc1ccc(-c2ccc(C(=O)NC(Cc3ccc(O)cc3)C(=O)O)cc2COc2ccc(-c3nc4cc(-c5nnn[nH]5)ccc4n3C3CCCCC3)cc2)cc1OC (stereo not drawn) [Example 61] | 90 |
| CNC(=O)c1ccc(-c2ccc(Cl)cc2)c(COc2ccc(-c3nc4cc(-c5nnn[nH]5)ccc4n3C3CCCCC3)cc2)c1 [Example 50] | 230 |
| O=C(O)C=Cc1ccc(-c2ccc(C(=O)O)cc2COc2ccc(-c3nc4cc(-c5nnn[nH]5)ccc4n3C3CCCCC3)cc2)cc1 [Example 47] | 50 |
| O=C(c1ccc(-c2ccc(F)c(Cl)c2)c(COc2ccc(-c3nc4cc(-c5nnn[nH]5)ccc4n3C3CCCCC3)cc2)c1)N1CCOCC1 [Example 76] | 1400 |
| CC(=O)Nc1cccc(-c2ccc(C(=O)O)cc2COc2ccc(-c3nc4cc(-c5nnn[nH]5)ccc4n3C3CCCCC3)cc2)c1 [Example 32] | 40 |
| COc1ccc(-c2ccc(C(=O)N3CCCC3)cc2COc2ccc(-c3nc4cc(-c5nnn[nH]5)ccc4n3C3CCCCC3)cc2)cc1OC [Example 89] | 460 |
| N#Cc1ccc(-c2ccc(C(=O)N3CCC(O)CC3)cc2COc2ccc(-c3nc4cc(-c5nnn[nH]5)ccc4n3C3CCCCC3)cc2)cc1 [Example 149] | 220 |
| O=C(O)c1ccc(-c2cccc3cccnc23)c(COc2ccc(-c3nc4cc(-c5nnn[nH]5)ccc4n3C3CCCCC3)cc2)c1 [Example 123] | 440 |
| O=C(c1ccc(-c2ccc(F)c(Cl)c2)c(COc2ccc(-c3nc4cc(-c5nnn[nH]5)ccc4n3C3CCCCC3)cc2)c1)N(CCO)CCO [Example 81] | 1100 |
| COc1ccc(-c2ccc(C(=O)N(CCO)CCO)cc2COc2ccc(-c3nc4cc(-c5nnn[nH]5)ccc4n3C3CCCCC3)cc2)cc1OC [Example 93] | 690 |
| O=C(c1ccc(-c2ccc(Cl)cc2)c(COc2ccc(-c3nc4cc(-c5nnn[nH]5)ccc4n3C3CCCCC3)cc2)c1)N1CCC(O)CC1 [Example 48] | 320 |
| COc1ccc(-c2ccc(C(=O)NC(Cc3ccc(O)cc3)C(=O)OC(C)(C)C)cc2COc2ccc(-c3nc4cc(-c5nnn[nH]5)ccc4n3C3CCCCC3)cc2)cc1OC (stereo not drawn) [Example 95] | 1400 |
| O=C(O)c1ccc(-c2ccc(F)cc2)c(COc2ccc(-c3nc4cc(-c5nnn[nH]5)ccc4n3C3CCCCC3)cc2)c1 [Example 24] | 50 |
| NC(=O)CCNC(=O)c1ccc(-c2cccc(O)c2)c(COc2ccc(-c3nc4cc(-c5nnn[nH]5)ccc4n3C3CCCCC3)cc2)c1 [Example 55] | 200 |
| COc1ccc(-c2ccc(C(=O)NCC(=O)OC(C)(C)C)cc2COc2ccc(-c3nc4cc(-c5nnn[nH]5)ccc4n3C3CCCCC3)cc2)cc1OC [Example 96] | 1600 |

| Compound | IC50 [nM] |
| --- | --- |
| CC(NC(=O)c1ccc(-c2cccc(O)c2)c(COc2ccc(-c3nc4cc(-c5nnn[nH]5)ccc4n3C3CCCCC3)cc2)c1)C(=O)OC(C)(C)C (stereo not drawn) [Example 71] | 520 |
| O=C(c1ccc(-c2cccc(O)c2)c(COc2ccc(-c3nc4cc(-c5nnn[nH]5)ccc4n3C3CCCCC3)cc2)c1)N1CCCC1 [Example 66] | 1400 |
| O=C(O)CNC(=O)c1ccc(-c2ccc(F)c(Cl)c2)c(COc2ccc(-c3nc4cc(-c5nnn[nH]5)ccc4n3C3CCCCC3)cc2)c1 [Example 86] | 320 |
| O=C(O)c1ccc(-c2cncnc2)c(COc2ccc(-c3nc4cc(-c5nnn[nH]5)ccc4n3C3CCCCC3)cc2)c1 [Example 4, 3-[[4-[1-Cyclohexyl-5-(1H-tetrazol-5-yl)-1H-benzimidazol-2-yl]phenoxy]methyl]-4-(5-pyrimidinyl)benzoic acid] | 630 |
| O=C(c1ccc(-c2ccsc2)c(COc2ccc(-c3nc4cc(-c5nnn[nH]5)ccc4n3C3CCCCC3)cc2)c1)N1CCOCC1 [Example 133] | 1100 |
| CN(C)C(=O)c1ccc(-c2ccc3[nH]cc(C(=O)C(F)(F)F)c3c2)c(COc2ccc(-c3nc4cc(-c5nnn[nH]5)ccc4n3C3CCCCC3)cc2)c1 [Example 152] | 420 |
| COC(=O)c1ccc(C(=O)NS(=O)(=O)c2ccc3c(c2)nc(-c2ccc(OCc4ccccc4)cc2)n3C2CCCCC2)cc1 [Example 17, 4-[2-(4-Benzyloxyphenyl)-1-cyclohexyl-1H-benzoimidazole-5-sulfonylaminocarbonyl]-benzoic acid methyl ester] | 5210 |
| c1ccc(C(Oc2ccc(-c3nc4cc(-c5nnn[nH]5)ccc4n3C3CCCCC3)cc2)c2ccccc2)cc1 [Example 1, 2-[4-(Diphenylmethoxy)phenyl]-1-cyclohexyl-5-(1H-tetrazol-5-yl)-1H-benzimidazole] | 630 |
| N#Cc1ccc(-c2ccc(C(=O)O)cc2COc2ccc(-c3nc4cc(-c5nnn[nH]5)ccc4n3C3CCCCC3)cc2)cc1 [Example 34] | 40 |
| CNC(=O)c1ccc(-c2ccc(OC)c(OC)c2)c(COc2ccc(-c3nc4cc(-c5nnn[nH]5)ccc4n3C3CCCCC3)cc2)c1 [Example 91] | 260 |
| O=C(O)CNC(=O)c1ccc(-c2ccsc2)c(COc2ccc(-c3nc4cc(-c5nnn[nH]5)ccc4n3C3CCCCC3)cc2)c1 [Example 143] | 80 |
| COc1ccccc1-c1nc(COc2ccc(-c3nc4cc(-c5nnn[nH]5)ccc4n3C3CCCCC3)cc2)no1 [Example 5, 1-Cyclohexyl-2-[4-[5-(2-methoxyphenyl)-1,2,4-oxadiazol-3-ylmethoxy]phenyl]-5-[1H-tetrazol-5-yl]-1H-benzimidazole] | 360 |
| O=C(O)c1ccc(-c2ccc(F)c(Cl)c2)c(COc2ccc(-c3nc4cc(-c5nnn[nH]5)ccc4n3C3CCCCC3)cc2)c1 [Example 30] | 40 |
| O=C(O)c1ccc(-c2ccc(Cl)cc2)c(COc2ccc(-c3nc4cc(-c5nnn[nH]5)ccc4n3C3CCCCC3)cc2)c1 [Example 23] | 20 |
| CC(NC(=O)c1ccc(-c2cccc(O)c2)c(COc2ccc(-c3nc4cc(-c5nnn[nH]5)ccc4n3C3CCCCC3)cc2)c1)C(=O)O (stereo not drawn) [Example 52] | 470 |
| O=C(c1ccc(-c2cccc(O)c2)c(COc2ccc(-c3nc4cc(-c5nnn[nH]5)ccc4n3C3CCCCC3)cc2)c1)N1CCC(O)CC1 [Example 69] | 660 |
| Cc1ccc(-c2ccc(C(=O)O)cc2COc2ccc(-c3nc4cc(-c5nnn[nH]5)ccc4n3C3CCCCC3)cc2)cc1N [Example 43] | 240 |
| O=C(O)c1ccc(-c2cccc3ccccc23)c(COc2ccc(-c3nc4cc(-c5nnn[nH]5)ccc4n3C3CCCCC3)cc2)c1 [Example 28] | 620 |
| O=C(O)c1ccc(-c2ccc(C(F)(F)F)cc2)c(COc2ccc(-c3nc4cc(-c5nnn[nH]5)ccc4n3C3CCCCC3)cc2)c1 [Example 31] | 60 |

From patent US6803374B2, “Compounds useful for treating hepatitis C virus” (priority 2001, dated 2004)
